Assay results reported in the NIST ThermoML archive (doi:10.1021/je050020m).

Details: Liquid, Vibrating tube method

CCCCCCCCCC [decane]
Details | mass density [kg/m3]
313.09 K, 1048 kPa | 715.63
313.09 K, 2010 kPa | 716.43
313.09 K, 2997 kPa | 717.28
313.09 K, 4060 kPa | 718.18
313.09 K, 5029 kPa | 718.98
313.09 K, 6019 kPa | 719.8
313.09 K, 7016 kPa | 720.64
313.09 K, 8050 kPa | 721.47
313.09 K, 9000 kPa | 722.24
313.09 K, 10029 kPa | 723.06
313.09 K, 11016 kPa | 723.85
313.09 K, 12012 kPa | 724.63
313.09 K, 13027 kPa | 725.4
313.09 K, 14011 kPa | 726.15
313.09 K, 15010 kPa | 726.91
313.09 K, 16030 kPa | 727.65
313.09 K, 17016 kPa | 728.38
313.09 K, 18037 kPa | 729.1
313.09 K, 19000 kPa | 729.81
313.09 K, 20019 kPa | 730.5
313.09 K, 21014 kPa | 731.21
313.09 K, 22032 kPa | 731.92
313.09 K, 23021 kPa | 732.62
313.09 K, 24016 kPa | 733.33
313.09 K, 25012 kPa | 734.06
323.03 K, 1025 kPa | 707.94
323.03 K, 2017 kPa | 708.85
323.03 K, 3015 kPa | 709.76
323.03 K, 4018 kPa | 710.65
323.03 K, 5022 kPa | 711.53
323.03 K, 6021 kPa | 712.41
323.03 K, 7018 kPa | 713.31
323.03 K, 8022 kPa | 714.15
323.03 K, 9016 kPa | 715.01
323.03 K, 10012 kPa | 715.84
323.03 K, 11022 kPa | 716.67
323.03 K, 12015 kPa | 717.51
323.03 K, 13020 kPa | 718.33
323.03 K, 14011 kPa | 719.12
323.03 K, 15010 kPa | 719.9
323.03 K, 16019 kPa | 720.71
323.03 K, 17010 kPa | 721.46
323.03 K, 18013 kPa | 722.22
323.03 K, 19033 kPa | 723
323.03 K, 20022 kPa | 723.74
323.03 K, 21014 kPa | 724.45
323.03 K, 22023 kPa | 725.22
323.03 K, 23025 kPa | 725.93
323.03 K, 24016 kPa | 726.68
323.03 K, 25021 kPa | 727.42
332.95 K, 1022 kPa | 700.4
332.95 K, 2005 kPa | 701.33
332.95 K, 3025 kPa | 702.32
332.95 K, 4025 kPa | 703.25
332.95 K, 5018 kPa | 704.2
332.95 K, 6018 kPa | 705.12
332.95 K, 7019 kPa | 706.08
332.95 K, 8023 kPa | 706.96
332.95 K, 9021 kPa | 707.89
332.95 K, 10017 kPa | 708.78
332.95 K, 11033 kPa | 709.68
332.95 K, 12023 kPa | 710.54
332.95 K, 13009 kPa | 711.42
332.95 K, 14016 kPa | 712.21
332.95 K, 15025 kPa | 713.05
332.95 K, 16011 kPa | 713.87
332.95 K, 17017 kPa | 714.69
332.95 K, 18016 kPa | 715.5
332.95 K, 19015 kPa | 716.28
332.95 K, 20029 kPa | 717.09
332.95 K, 21001 kPa | 717.84
332.95 K, 22034 kPa | 718.63
332.95 K, 23017 kPa | 719.41
332.95 K, 24023 kPa | 720.18
332.95 K, 25002 kPa | 720.95
343.8 K, 1014 kPa | 692.56
343.8 K, 2027 kPa | 693.64
343.8 K, 3016 kPa | 694.64
343.8 K, 4020 kPa | 695.65
343.8 K, 5016 kPa | 696.67
343.8 K, 6019 kPa | 697.68
343.8 K, 7026 kPa | 698.66
343.8 K, 8022 kPa | 699.65
343.8 K, 9014 kPa | 700.58
343.8 K, 10017 kPa | 701.53
343.8 K, 11022 kPa | 702.48
343.8 K, 12021 kPa | 703.39
343.8 K, 13011 kPa | 704.27
343.8 K, 14013 kPa | 705.16
343.8 K, 15025 kPa | 706.05
343.8 K, 16019 kPa | 706.94
343.8 K, 17010 kPa | 707.79
343.8 K, 18023 kPa | 708.61
343.8 K, 19030 kPa | 709.47
343.8 K, 20008 kPa | 710.25
343.8 K, 21017 kPa | 711.1
343.8 K, 22035 kPa | 711.92
343.8 K, 23004 kPa | 712.73
343.8 K, 24008 kPa | 713.53
343.8 K, 25103 kPa | 714.44
352.71 K, 2132 kPa | 686.04
352.71 K, 3053 kPa | 687.07
352.71 K, 4028 kPa | 688.15
352.71 K, 5028 kPa | 689.19
352.71 K, 6065 kPa | 690.28
352.71 K, 7007 kPa | 691.26
352.71 K, 8041 kPa | 692.36
352.71 K, 9064 kPa | 693.4
352.71 K, 10047 kPa | 694.38
352.71 K, 11019 kPa | 695.38
352.71 K, 12012 kPa | 696.31
352.71 K, 13031 kPa | 697.31
352.71 K, 14010 kPa | 698.18
352.71 K, 15014 kPa | 699.14
352.71 K, 16012 kPa | 700.05
352.71 K, 17008 kPa | 700.95
352.71 K, 17959 kPa | 701.8
352.71 K, 19020 kPa | 702.7
352.71 K, 20044 kPa | 703.6
352.71 K, 21044 kPa | 704.46
352.71 K, 22024 kPa | 705.31
352.71 K, 23009 kPa | 706.13
352.71 K, 24014 kPa | 707
352.71 K, 25000 kPa | 707.86
362.63 K, 2054 kPa | 678.23
362.63 K, 3010 kPa | 679.34
362.63 K, 4132 kPa | 680.68
362.63 K, 5020 kPa | 681.68
362.63 K, 6026 kPa | 682.79
362.63 K, 7042 kPa | 683.95
362.63 K, 8057 kPa | 685.06
362.63 K, 9014 kPa | 686.08
362.63 K, 10034 kPa | 687.17
362.63 K, 10999 kPa | 688.24
362.63 K, 12014 kPa | 689.26
362.63 K, 13025 kPa | 690.26
362.63 K, 13992 kPa | 691.22
362.63 K, 15019 kPa | 692.24
362.63 K, 16004 kPa | 693.18
362.63 K, 17008 kPa | 694.11
362.63 K, 18002 kPa | 695.04
362.63 K, 19037 kPa | 696.02
362.63 K, 20027 kPa | 696.93
362.63 K, 21030 kPa | 697.8
362.63 K, 22003 kPa | 698.73
362.63 K, 23027 kPa | 699.61
362.63 K, 24046 kPa | 700.55
362.63 K, 25011 kPa | 701.39
